The test system of series [1] is P. aeruginosa E411-17. Briefly: Membrane depolarization (DiBAC4(3)). The class given is cell-based, Pseudomonas aeruginosa. The note with it: Example 2, PBS with glucose. As for the experimental part:
Bacterial membrane depolarization was conducted (Marks, et al. (2013) PLoS One 8(5):e63158). Briefly, an overnight culture of MRSA USA300 or P. aeruginosa E411-17 was inoculated into TSB and grown to exponential phase. Bacteria were washed with 1×PBS, re-suspended in twice the volume of 1×PBS containing 25 mM glucose, and incubated at 37° C. for 15 minutes. Then, 500 nM (final concentration) of the DiBAC4 (3) bis-(1, 3-dibutylbarbituric acid) trimethine oxonol (ANASPEC, CA) was added and vortexed gently. Aliquots of 90 μL of the energized bacteria solution were loaded to the 96 well plates (Corning COSTAR, AZ) and placed in a FLUOstar® Omega microplate reader (BMG LABTECH, NC). Fluorescence was read for 20 minutes at excitation and emission wavelengths of 485 nm and 520 nm, respectively. Then, 10 μL of peptide solutions was added and fluorescence readings were recorded for 40 minutes. Triton® X-100 (0.1%) was used as a positive control.

The subject of series [2] is human red blood cells. Briefly: Hemolytic assay. Format: cell-based. The note with it: human, 1 h, 400 μM. The procedure, abridged: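 Washed human erythrocytes at 2% in isotonic saline incubated 1 h at 37 °C with serially diluted peptides. After centrifugation, released hemoglobin read at 545 nm relative to 1% Triton X-100; HC50 is the peptide concentration giving 50% lysis.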

For series [3], the system named is MRSA USA300. Put plainly: Inhibition of bacterial attachment. Format: cell-based, Staphylococcus aureus. The note with it: Example 1, 4× and 8×MIC. As for the experimental part: Inhibition of Bacterial Attachment. Bacterial attachment is the initial step for biofilm formation. For this experiment, an overnight culture of MRSA USA300 was grown overnight in TSB media to an optical density (OD600) of ˜1.0. […] The plates were then incubated at 37° C. for 1 hour. Next, the medium was aspirated and washed with 1×PBS, and 200 μL of TSB containing XTT 10% [2,3-bis(2-methyloxy-4-nitro-5-sulfophenyl)-2H-tertazolium-5-carboxanilide](ATCC, VA) solution was added. After incubation at 37° C. for 2 hours, absorbance was read at 450 nm using a ChroMate™ microtiter plate reader. TSB containing 10% XTT served as a blank, while bacterial culture treated with water served as a positive control. Percentages of viable cells in biofilms were plotted by assuming 100% growth in water treated control.
Bacterial attachment was conducted (Mishra, et al. (2016) ACS Med. Chem. Lett., 77(1):117-121; Duplantier, et al. (2013) Front. Immunol., 4: 143). In brief, an overnight culture of MRSA USA300 or P. aeruginosa E411-17 was grown overnight in TSB media to an optical density (OD600) of ˜1.0. […] The plates were then incubated at 37° C. for 1 hour. […] After incubation at 37° C. for 2 hours, absorbance was read at 450 nm using a ChroMate® microtiter plate reader. […]

Where no end group is shown, it is not given here.

Regarding `CC[C@H](C)[C@H](NC(=O)[C@H](CCCCN)NC(=O)[C@H](CCC(=O)O)NC(=O)[C@H](CCCCN)NC(=O)[C@H](CO)NC(=O)[C@H](CCCCN)NC(=O)[C@H](CCCNC(=N)N)NC(=O)[C@H](Cc1ccccc1)NC(=O)[C@H](Cc1ccccc1)NC(=O)[C@H](CC(=O)O)NC(=O)CNC(=O)[C@H](CC(C)C)NC(=O)[C@@H](N)CC(C)C)C(=O)NCC(=O)N[C@@H](CCCCN)C(=O)N[C@@H](CCC(=O)O)C(=O)N[C@@H](Cc1ccccc1)C(=O)N[C@@H](CCCCN)C(=O)N[C@@H](CCCNC(=N)N)C(=O)N[C@H](C(=O)N[C@H](C(=O)N[C@@H](CCC(N)=O)C(=O)N[C@@H](CCCNC(=N)N)C(=O)N[C@H](C(=O)N[C@@H](CCCCN)C(=O)N[C@@H](CC(=O)O)C(=O)N[C@@H](Cc1ccccc1)C(=O)N[C@@H](CC(C)C)C(=O)N[C@@H](CCCNC(=N)N)C(=O)N[C@@H](CC(N)=O)C(=O)N[C@@H](CC(C)C)C(=O)N[C@H](C(=O)N1CCC[C@H]1C(=O)N[C@@H](CCCNC(=N)N)C(=O)N[C@H](C(=O)N[C@@H](CCC(=O)O)C(=O)N[C@@H](CO)C(=O)O)[C@@H](C)O)C(C)C)[C@@H](C)CC)C(C)C)[C@@H](C)CC` [LL-37], the membrane depolarization entry in series [1] is “most powerful in membrane depolarization”. With `CCCCCCCCCC(=O)N[C@@H](Cc1c[nH]c2ccccc12)C(=O)N[C@H](CC(N)=O)C(=O)N[C@@H](CC(=O)O)C(=O)N[C@@H]1C(=O)NCC(=O)N[C@@H](CCCN)C(=O)N[C@@H](CC(=O)O)C(=O)N[C@H](C)C(=O)N[C@@H](CC(=O)O)C(=O)NCC(=O)N[C@H](CO)C(=O)N[C@@H]([C@H](C)CC(=O)O)C(=O)N[C@@H](CC(=O)c2ccccc2N)C(=O)O[C@@H]1C` [Daptomycin], the hemolysis entry in series [2] is “did not lyse human red blood cells even at 400 μM”. Regarding RRWWRWWR-NH2 [W543], in series [3], the anti-attachment ability entry is “did not show anti-attachment ability”.

For the origin of these results see US20250101062A1, “ANTIMICROBIAL PEPTIDES” (Board of Regents of the University of Nebraska, priority 2023, published 2025).
